We go through 13 molecules from patent publication US20260274892A1, “MACROCYCLIC BROAD SPECTRUM ANTIBIOTICS” (RQx Pharmaceuticals, Inc., priority 2017, published 2026).

Test [1] concerns Methicillin Resistant Staphylococcus aureus strain USA 200. In words: Minimum inhibitory concentration (MIC), CLSI broth micro-dilution, S. aureus. The test is classed as cell-based. The note with it: Staphylococcus aureus, MRSA / USA200; Table 6; MRSA USA 200; cation adjusted Mueller Hinton Broth + 0.002% Tween-80; 35° C., 22 hours. Summed up:
(§1)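 Colonies grown 20 h at 35° C on Trypticase Soy agar (MRSA) or Luria agar (E. coli) were suspended in cation-adjusted Mueller Hinton broth with 0.002% Tween-80. Suspensions were added at OD600 0.0005 to 10-point twofold compound dilutions, then incubated 22 h at 35° C.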

Test [2] deals with Escherichia coli ATCC 25922. In words: Minimum inhibitory concentration (MIC), CLSI broth micro-dilution, E. coli. The note with it: Escherichia coli, ATCC25922, 22 h, Table 6, cation adjusted Mueller Hinton Broth + 0.002% Tween-80, 35° C. In kind it is cell-based. Summed up:
as §1
(Broth dilution looks for growth in wells or tubes with falling amounts of substance.)

The MIC is the least concentration at which growth counts as inhibited. `Cc1nc(-c2ccc3c(c2)CCCC3)nc(C)c1C(=O)N[C@@H](CCN)C(=O)N(C)[C@@H]1C(=O)N[C@@H](C)C(=O)N[C@H](C(=O)NCC#N)Cc2ccc(OCCN)c(c2)-c2cc1ccc2OCCN` (racemic) [Compound 259, rac-(8S,11S,14S)-3,18-bis(2-aminoethoxy)-N-(cyanomethyl)-11-methyl-14-[methyl-[rac-(2S)-4-amino-2-[(4,6-dimethyl-2-tetralin-6-yl-pyrimidine-5-carbonyl)amino]butanoyl]amino]-10,13-dioxo-9,12-diazatricyclo[13.3.1.12,6]icosa-1(18),2(20),3,5,15(19),16-hexaene-8-carboxamide]: the minimal inhibitory concentration (MIC) in test [1] amounted to 0.025 µM; in test [2], 0.26 µM.

Take `CCc1ccc(-c2nc(C)c(C(=O)N[C@@H](CCN)C(=O)N(C)[C@@H]3C(=O)N[C@@H](C)C(=O)N[C@H](C(=O)NCC#N)Cc4ccc(OCCN)c(c4)-c4cc3ccc4OCCN)c(C)n2)cc1` (racemic) [Compound 260, rac-(8S,11S,14S)-3,18-bis(2-aminoethoxy)-N-(cyanomethyl)-11-methyl-14-[methyl-[rac-(2S)-4-amino-2-[[2-(4-ethylphenyl)-4,6-dimethyl-pyrimidine-5-carbonyl]amino]butanoyl]amino]-10,13-dioxo-9,12-diazatricyclo[13.3.1.12,6]icosa-1(18),2(20),3,5,15(19),16-hexaene-8-carboxamide]: the results for the minimal inhibitory concentration (MIC) in test [1] and in test [2] were 0.079 µM and 0.45 µM, respectively.

Consider `CCC(C)(C)c1ccc(-c2nc(C)c(C(=O)N[C@@H](CCN)C(=O)N(C)[C@@H]3C(=O)N[C@@H](C)C(=O)N[C@H](C(=O)NCC#N)Cc4ccc(OCCN)c(c4)-c4cc3ccc4OCCN)c(C)n2)cc1` (racemic) [Compound 261, rac-(8S,11S,14S)-3,18-bis(2-aminoethoxy)-N-(cyanomethyl)-11-methyl-14-[methyl-[rac-(2S)-4-amino-2-[[2-[4-(1,1-dimethylpropyl)phenyl]-4,6-dimethyl-pyrimidine-5-carbonyl]amino]butanoyl]amino]-10,13-dioxo-9,12-diazatricyclo[13.3.1.12,6]icosa-1(18),2(20),3,5,15(19),16-hexaene-8-carboxamide], for which the MIC in test [1] turned out to be 0.014 µM; in test [2], 0.1 µM.

As for `Cc1nc(-c2ccc(CCC(C)C)cc2)nc(C)c1C(=O)N[C@@H](CCN)C(=O)N(C)[C@@H]1C(=O)N[C@@H](C)C(=O)N[C@H](C(=O)NCC#N)Cc2ccc(OCCN)c(c2)-c2cc1ccc2OCCN` (racemic) [Compound 262, rac-(8S,11S,14S)-3,18-bis(2-aminoethoxy)-N-(cyanomethyl)-11-methyl-14-[methyl-[rac-(2S)-4-amino-2-[[2-(4-isopentylphenyl)-4,6-dimethyl-pyrimidine-5-carbonyl]amino]butanoyl]amino]-10,13-dioxo-9,12-diazatricyclo[13.3.1.12,6]icosa-1(18),2(20),3,5,15(19),16-hexaene-8-carboxamide], the results for the minimum inhibitory concentration (MIC) in test [1] and in test [2] were 0.0081 µM and 0.097 µM, respectively.

In the case of `Cc1nc(-c2cccc(C(C)(C)C)c2)nc(C)c1C(=O)N[C@@H](CCN)C(=O)N(C)[C@@H]1C(=O)N[C@@H](C)C(=O)N[C@H](C(=O)NCC#N)Cc2ccc(OCCN)c(c2)-c2cc1ccc2OCCN` (racemic) [Compound 263, rac-(8S,11S,14S)-3,18-bis(2-aminoethoxy)-N-(cyanomethyl)-11-methyl-14-[methyl-[rac-(2S)-4-amino-2-[[2-(3-tert-butylphenyl)-4,6-dimethyl-pyrimidine-5-carbonyl]amino]butanoyl]amino]-10,13-dioxo-9,12-diazatricyclo[13.3.1.12,6]icosa-1(18),2(20),3,5,15(19),16-hexaene-8-carboxamide], the MIC was determined as 0.016 µM in test [1] and 0.53 µM in test [2].

Consider `C=Cc1ccc(-c2nc(C)c(C(=O)N[C@@H](CCN)C(=O)N(C)[C@@H]3C(=O)N[C@@H](C)C(=O)N[C@H](C(=O)NCC#N)Cc4ccc(OCCN)c(c4)-c4cc3ccc4OCCN)c(C)n2)cc1` (racemic) [Compound 265, rac-(8S,11S,14S)-3,18-bis(2-aminoethoxy)-N-(cyanomethyl)-11-methyl-14-[methyl-[rac-(2S)-4-amino-2-[[4,6-dimethyl-2-(4-vinylphenyl)pyrimidine-5-carbonyl]amino]butanoyl]amino]-10,13-dioxo-9,12-diazatricyclo[13.3.1.12,6]icosa-1(18),2(20),3,5,15(19),16-hexaene-8-carboxamide], for which the values for the MIC in test [1] and in test [2] were 0.068 µM and 0.41 µM, respectively.

In the case of `COC(C)(C)c1ccc(-c2nc(C)c(C(=O)N[C@@H](CCN)C(=O)N(C)[C@@H]3C(=O)N[C@@H](C)C(=O)N[C@H](C(=O)NCC#N)Cc4ccc(OCCN)c(c4)-c4cc3ccc4OCCN)c(C)n2)cc1` (racemic) [Compound 267, rac-(8S,11S,14S)-3,18-bis(2-aminoethoxy)-N-(cyanomethyl)-11-methyl-14-[methyl-[rac-(2S)-4-amino-2-[[2-[4-(1-methoxy-1-methyl-ethyl)phenyl]-4,6-dimethyl-pyrimidine-5-carbonyl]amino]butanoyl]amino]-10,13-dioxo-9,12-diazatricyclo[13.3.1.12,6]icosa-1(18),2(20),3,5,15(19),16-hexaene-8-carboxamide], the values for the minimal inhibitory concentration (MIC) in test [1] and in test [2] were 0.39 µM and 1 µM, respectively.

With `CCCCc1ccc(-c2nc(C)c(C(=O)N[C@@H](CCN)C(=O)N(C)[C@@H]3C(=O)N[C@@H](C)C(=O)N[C@H](C(=O)NCC#N)Cc4ccc(OCCN)c(c4)-c4cc3ccc4OCCN)c(C)n2)cc1CCCC` (racemic) [Compound 268, rac-(8S,11S,14S)-3,18-bis(2-aminoethoxy)-N-(cyanomethyl)-11-methyl-14-[methyl-[rac-(2S)-4-amino-2-[[2-(3,4-dibutylphenyl)-4,6-dimethyl-pyrimidine-5-carbonyl]amino]butanoyl]amino]-10,13-dioxo-9,12-diazatricyclo[13.3.1.12,6]icosa-1(18),2(20),3,5,15(19),16-hexaene-8-carboxamide], the minimal inhibitory concentration (MIC) worked out at 0.016 µM in test [1] and 0.12 µM in test [2].

With `Cc1nc(-c2ccc3c(c2)CCC3(C)C)nc(C)c1C(=O)N[C@@H](CCN)C(=O)N(C)[C@@H]1C(=O)N[C@@H](C)C(=O)N[C@H](C(=O)NCC#N)Cc2ccc(OCCN)c(c2)-c2cc1ccc2OCCN` (racemic) [Compound 269, rac-(8S,11S,14S)-3,18-bis(2-aminoethoxy)-N-(cyanomethyl)-11-methyl-14-[methyl-[rac-(2S)-4-amino-2-[[2-(1,1-dimethylindan-5-yl)-4,6-dimethyl-pyrimidine-5-carbonyl]amino]butanoyl]amino]-10,13-dioxo-9,12-diazatricyclo[13.3.1.12,6]icosa-1(18),2(20),3,5,15(19),16-hexaene-8-carboxamide], the figures for the MIC in test [1] and in test [2] were 0.016 µM and 0.094 µM, respectively.

For the molecule `Cc1nc(-c2ccc3c(c2)CCCC3(C)C)nc(C)c1C(=O)N[C@@H](CCN)C(=O)N(C)[C@@H]1C(=O)N[C@@H](C)C(=O)N[C@H](C(=O)NCC#N)Cc2ccc(OCCN)c(c2)-c2cc1ccc2OCCN` (racemic) [Compound 270, rac-(8S,11S,14S)-3,18-bis(2-aminoethoxy)-N-(cyanomethyl)-11-methyl-14-[methyl-[rac-(2S)-4-amino-2-[[2-(1,1-dimethyltetralin-6-yl)-4,6-dimethyl-pyrimidine-5-carbonyl]amino]butanoyl]amino]-10,13-dioxo-9,12-diazatricyclo[13.3.1.12,6]icosa-1(18),2(20),3,5,15(19),16-hexaene-8-carboxamide], the figures for the minimal inhibitory concentration (MIC) in test [1] and in test [2] were 0.012 µM and 0.064 µM, respectively.

For `Cc1nc(-c2ccc3c(c2)OCCC3(C)C)nc(C)c1C(=O)N[C@@H](CCN)C(=O)N(C)[C@@H]1C(=O)N[C@@H](C)C(=O)N[C@H](C(=O)NCC#N)Cc2ccc(OCCN)c(c2)-c2cc1ccc2OCCN` (racemic) [Compound 271, rac-(8S,11S,14S)-3,18-bis(2-aminoethoxy)-N-(cyanomethyl)-11-methyl-14-[methyl-[rac-(2S)-4-amino-2-[[2-(4,4-dimethylchroman-7-yl)-4,6-dimethyl-pyrimidine-5-carbonyl]amino]butanoyl]amino]-10,13-dioxo-9,12-diazatricyclo[13.3.1.12,6]icosa-1(18),2(20),3,5,15(19),16-hexaene-8-carboxamide], the MIC in test [1] came to 0.032 µM; in test [2], 0.26 µM.

Take `CC(C)=C(C)c1ccc(-c2nc(C)c(C(=O)N[C@@H](CCN)C(=O)N(C)[C@@H]3C(=O)N[C@@H](C)C(=O)N[C@H](C(=O)NCC#N)Cc4ccc(OCCN)c(c4)-c4cc3ccc4OCCN)c(C)n2)cc1` (racemic) [Compound 272, rac-(8S,11S,14S)-3,18-bis(2-aminoethoxy)-N-(cyanomethyl)-11-methyl-14-[methyl-[rac-(2S)-4-amino-2-[[2-[4-(1,2-dimethylprop-1-enyl)phenyl]-4,6-dimethyl-pyrimidine-5-carbonyl]amino]butanoyl]amino]-10,13-dioxo-9,12-diazatricyclo[13.3.1.12,6]icosa-1(18),2(20),3,5,15(19),16-hexaene-8-carboxamide]: the minimum inhibitory concentration (MIC) was found to be 0.012 µM in test [1] and 0.065 µM in test [2].

`CC(C)=Cc1ccc(-c2nc(C)c(C(=O)N[C@@H](CCN)C(=O)N(C)[C@@H]3C(=O)N[C@@H](C)C(=O)N[C@H](C(=O)NCC#N)Cc4ccc(OCCN)c(c4)-c4cc3ccc4OCCN)c(C)n2)cc1` (racemic) [Compound 273, rac-(8S,11S,14S)-3,18-bis(2-aminoethoxy)-N-(cyanomethyl)-11-methyl-14-[methyl-[rac-(2S)-4-amino-2-[[4,6-dimethyl-2-[4-(2-methylprop-1-enyl)phenyl]pyrimidine-5-carbonyl]amino]butanoyl]amino]-10,13-dioxo-9,12-diazatricyclo[13.3.1.12,6]icosa-1(18),2(20),3,5,15(19),16-hexaene-8-carboxamide]: the minimal inhibitory concentration (MIC) in test [1] is 0.0082 µM; in test [2] it was 0.099 µM.
